Data published in patent US20230365592A1 (Agios Pharmaceuticals, Inc., priority 2022, published 2023).
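Also: after compound treatment, cells received sepiapterin plus isotope-labelled Phenylalanine for 4 hours, then labelled Tyrosine in the medium was quantified, 10-point 2-fold dilution series run in duplicate.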

The compounds below were run against T1, human PAH with the R408W mutation (Homo sapiens, UniProt P00439, R408W) (assay: Cell Based Phenylalanine Flux Assay). Details: A375 cells expressing R408W PAH; 24 hrs with compound, then 20 µM sepiapterin and 800 µM 13C9,15N-Phenylalanine for 4 hours; 13C-Tyrosine by LC-MS; average where tested multiple times; read-out: AC50.
T1 construct: expressed in transfected cells
T1 sequence (P00439 1-452 R408W): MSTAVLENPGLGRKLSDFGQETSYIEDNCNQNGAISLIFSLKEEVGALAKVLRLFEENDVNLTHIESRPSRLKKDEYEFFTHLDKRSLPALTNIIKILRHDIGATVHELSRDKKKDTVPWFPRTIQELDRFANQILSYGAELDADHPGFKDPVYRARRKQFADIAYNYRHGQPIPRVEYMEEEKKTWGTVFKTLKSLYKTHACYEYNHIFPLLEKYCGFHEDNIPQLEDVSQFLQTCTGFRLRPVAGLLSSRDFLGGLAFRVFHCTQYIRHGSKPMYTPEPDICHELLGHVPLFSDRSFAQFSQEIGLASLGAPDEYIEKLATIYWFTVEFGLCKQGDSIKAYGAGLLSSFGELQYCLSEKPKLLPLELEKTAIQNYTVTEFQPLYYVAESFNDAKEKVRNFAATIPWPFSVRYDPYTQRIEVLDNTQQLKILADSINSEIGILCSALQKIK
Compound `Cn1cc(-c2ccc3c(C(=O)N4CCc5[nH]cnc5[C@@H]4c4cc5ccccn5n4)cnn3c2)cn1` (single isomer, unassigned) has an AC50 of 1 to 5 µM.
Compound `O=C(c1nnc(C2CC(F)(F)C2)o1)N1CCc2[nH]cnc2[C@@H]1c1cc2cccc(C(F)F)n2n1` (single isomer, unassigned) has an AC50 of over 5 µM.
In the case of `FC(F)c1cccn2nc([C@H]3c4nc[nH]c4CCN3c3nc4ccccc4o3)cc12` (single isomer, unassigned), the AC50 is reported as over 5 µM.
With `Cn1cc(-c2nnc(C(=O)N3CCc4[nH]cnc4[C@@H]3c3cc4cc(F)ccn4n3)o2)cn1` (single isomer, unassigned) the AC50 was 1 to 5 µM.
Compound `Cc1nc(C(C)(C)O)oc1C(=O)N1CCc2[nH]cnc2[C@@H]1c1cc2cccc(C(F)(F)F)n2n1` (single isomer, unassigned) has an AC50 of 1 to 5 µM.
Work on `CC(C)c1nnc(C(=O)N2CCc3[nH]cnc3[C@@H]2c2cc3cccc(C(F)(F)F)n3n2)o1` (single isomer, unassigned) yielded an AC50 of 1 to 5 µM.
With `FC(F)c1cccc2cc([C@H]3c4nc[nH]c4CCN3c3nnc(C4CCC4)o3)nn12` (single isomer, unassigned) the AC50 was over 5 µM.
Work on `Cc1nnc(C(=O)N2CCc3[nH]cnc3[C@@H]2c2cc3cccc(C(F)(F)F)n3n2)o1` (single isomer, unassigned) yielded an AC50 of 1 to 5 µM.
`Cc1cccn2nc([C@H]3c4nc[nH]c4CCN3c3nnc(-c4cccnc4)o3)cc12` (single isomer, unassigned) showed an AC50 of over 5 µM.
With `O=C(c1ocnc1C1CC1)N1CCc2[nH]cnc2[C@@H]1c1cc2cccc(C(F)(F)F)n2n1` (single isomer, unassigned) the AC50 was over 5 µM.
Work on `O=C(c1cnco1)N1CCc2[nH]cnc2[C@@H]1c1cc2ccccn2n1` (single isomer, unassigned) yielded an AC50 of 1 to 5 µM.
With `Cc1cccc2cc([C@H]3c4nc[nH]c4CCN3C(=O)c3cnn4cc(C5CC5)ccc34)nn12` (single isomer, unassigned) the AC50 was over 5 µM.
In the case of `Cn1cc(N2CCc3[nH]cnc3[C@H]2c2cc3ccccn3n2)cn1` (single isomer, unassigned), the AC50 is reported as over 5 µM.
`Cn1ccc(-c2ncc(C(=O)N3CCc4[nH]cnc4[C@H]3c3cc4ccccn4n3)o2)n1` (single isomer, unassigned) showed an AC50 of 1 to 5 µM.
`CC1(c2nnc(-n3cnc4c3[C@@H](c3cc5ccccn5n3)NCC4)o2)CC1` (single isomer, unassigned) was tested, and the AC50 was 1 to 5 µM.
Compound `Cc1c([C@@H]2c3nc[nH]c3CCN2C(=O)c2nnc(-c3cnn(C)c3C)o2)nn2ccccc12` (single isomer, unassigned) has an AC50 of 1 to 5 µM.
Compound `CC(C)(F)c1nnc(C(=O)N2CCc3[nH]cnc3[C@H]2c2cc3cc(C(F)(F)F)ccn3n2)o1` (single isomer, unassigned) has an AC50 of 1 to 5 µM.
In the case of `CC(C)(F)c1nnc(C(=O)N2CCc3[nH]cnc3C2c2cc3cc(F)ccn3n2)o1` (single isomer, unassigned), the AC50 is reported as 1 to 5 µM.
Compound `Cc1cccn2nc([C@@H]3c4nc[nH]c4CCN3c3nnc(C4CC(F)(F)C4)o3)cc12` (single isomer, unassigned) has an AC50 of 1 to 5 µM.
`O=C(c1nnc(C2CC(F)(F)C2)o1)N1CCc2[nH]cnc2[C@H]1c1cc2cccc(F)n2n1` (single isomer, unassigned) was tested, and the AC50 was 1 to 5 µM.
`Cn1cc(-c2nnc(N3CCc4[nH]cnc4[C@H]3c3cc4c(F)cccn4n3)o2)cn1` (single isomer, unassigned) was tested, and the AC50 was 1 to 5 µM.
Compound `Cc1nnc(N2CCc3[nH]cnc3[C@H]2c2cc3c(F)cccn3n2)o1` (single isomer, unassigned) has an AC50 of 1 to 5 µM.
`O=C(c1nnc(-c2cn[nH]c2)o1)N1CCc2[nH]cnc2[C@H]1c1cc2c(F)cccn2n1` (single isomer, unassigned) showed an AC50 of 1 to 5 µM.
Work on `COc1cccn2nc([C@@H]3c4nc[nH]c4CCN3c3nnc(C)o3)cc12` (single isomer, unassigned) yielded an AC50 of 1 to 5 µM.
In the case of `Cc1nnc(C(=O)N2CCc3[nH]cnc3[C@H]2c2cc3ccc(F)cn3n2)o1` (single isomer, unassigned), the AC50 is reported as 1 to 5 µM.
For `Cc1nnc(C(=O)N2CCc3[nH]cnc3[C@H]2c2cc3cccc(C(F)F)n3n2)o1` (single isomer, unassigned), the AC50 was 1 to 5 µM.
Compound `Cn1cnc(-c2nnc(C(=O)N3CCc4[nH]cnc4[C@H]3c3cc4cccc(C(F)F)n4n3)o2)c1` (single isomer, unassigned) has an AC50 of 1 to 5 µM.
`Nc1cnc(N2CCc3[nH]cnc3[C@H]2c2cc3cccc(C(F)F)n3n2)nc1` (single isomer, unassigned) was tested, and the AC50 was over 5 µM.
For `Cc1nnc(N2CCc3[nH]cnc3[C@H]2c2cc3cccc(Cl)n3n2)o1` (single isomer, unassigned), the AC50 was 1 to 5 µM.
Compound `O=C(c1oc(-c2ccccn2)nc1C1CC1)N1CCCc2[nH]cnc2[C@H]1c1cc2ccccn2n1` (single isomer, unassigned) has an AC50 of 1 to 5 µM.
Work on `FC(F)(F)c1cccn2nc([C@@H]3c4nc[nH]c4CCN3c3nnc(-c4ncccn4)o3)cc12` (single isomer, unassigned) yielded an AC50 of 1 to 5 µM.
For `O=C(c1nnc(-c2ncccn2)o1)N1CCc2[nH]cnc2[C@H]1c1cc2c(C3CC3)cccn2n1` (single isomer, unassigned), the AC50 was over 5 µM.
`COc1cccn2nc([C@@H]3c4nc[nH]c4CCN3C(=O)c3nnc(C(C)(C)O)o3)cc12` (single isomer, unassigned) was tested, and the AC50 was over 5 µM.
`Cc1cccn2nc([C@@H]3c4nc[nH]c4CCN3c3nnc(-c4ncccn4)o3)cc12` (single isomer, unassigned) gave an AC50 of 1 to 5 µM.
`CC(C)(O)c1ncc(C(=O)N2CCc3[nH]cnc3[C@H]2c2cc3cccc(Cl)n3n2)o1` (single isomer, unassigned) gave an AC50 of 1 to 5 µM.
`Cc1cccc2cc([C@@H]3c4nc[nH]c4CCN3C(=O)c3cnc(C(C)(C)O)o3)nn12` (single isomer, unassigned) gave an AC50 of 1 to 5 µM.
Compound `O=C(c1cnc(-c2cnccn2)o1)N1CCc2[nH]cnc2C1c1cc2ccccn2n1` (single isomer, unassigned) has an AC50 of 1 to 5 µM.
Compound `COc1cccn2nc([C@@H]3c4nc[nH]c4CCN3c3nnc(C4CC4)o3)cc12` (single isomer, unassigned) has an AC50 of 1 to 5 µM.
With `c1ccn2nc([C@H]3NCCc4ncn(-c5nnc(C6CC6)o5)c43)cc2c1` (single isomer, unassigned) the AC50 was 1 to 5 µM.
`c1ccn2nc([C@@H]3c4nc[nH]c4CCN3c3nnc(N4CCOCC4)o3)cc2c1` (single isomer, unassigned) gave an AC50 of over 5 µM.
In the case of `COCc1ccc2c(C(=O)N3CCc4[nH]cnc4[C@H]3c3cc4cccc(F)n4n3)cnn2c1` (single isomer, unassigned), the AC50 is reported as 1 to 5 µM.
`O=C(c1cnco1)N1CCc2[nH]cnc2[C@H]1c1cc2ccc(F)cn2n1` (single isomer, unassigned) showed an AC50 of 1 to 5 µM.
With `Cn1ncc(C(=O)N2CCc3[nH]cnc3[C@H]2c2cc3ccccn3n2)c1C(F)F` (single isomer, unassigned) the AC50 was 1 to 5 µM.
In the case of `CN(C)C(=O)c1nnc(N2CCc3[nH]cnc3[C@H]2c2cc3c(C(F)(F)F)cccn3n2)o1` (single isomer, unassigned), the AC50 is reported as 1 to 5 µM.
Work on `Cc1nc([C@H](C)O)oc1C(=O)N1CCc2[nH]cnc2[C@H]1c1cc2cccc(C)n2n1` (single isomer, unassigned) yielded an AC50 of 1 to 5 µM.
In the case of `COc1cccn2nc([C@@H]3c4nc[nH]c4CCN3C(=O)c3cnn4cc(CN(C)C)ccc34)cc12` (single isomer, unassigned), the AC50 is reported as 1 to 5 µM.
With `CN(C)CCc1ccc2c(C(=O)N3CCc4[nH]cnc4[C@H]3c3cc4ccccn4n3)cnn2c1` (single isomer, unassigned) the AC50 was over 5 µM.
`COC(=O)N1CC(C(=O)N2CCc3[nH]cnc3[C@H]2c2cc3ccccn3n2)C1` (single isomer, unassigned) showed an AC50 of over 5 µM.
